US12258327B2, “5-membered heteroaryl-containing aminopyridine compounds as EGFR inhibitors” (YUHAN CORPORATION, priority 2021, dated 2025)
Like-named read-outs stand apart in the source and are kept apart here.

Key:
EGFR del19/T790M/C797S = EGFR del19/T790M/C797S (Homo sapiens, UniProt P00533, C797S/DEL746-750/T790M); assay: Biochemical EGFR kinase assay (Lance Ultra TR-FRET), triple mutant del19/T790M/C797S
In short: (§1)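 In this biochemical assay, phosphorylation after a one-hour room-temperature reaction was detected with europium-labelled anti-phosphopeptide antibody at 2 nM final concentration.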

EGFR L858R/T790M/C797S = EGFR L858R/T790M/C797S (Homo sapiens, UniProt P00533, C797S/L858R/T790M); assay: Biochemical EGFR kinase assay (Lance Ultra TR-FRET), triple mutant L858R/T790M/C797S
In short: as §1

EGFR del19/C797S = EGFR del19/C797S (Homo sapiens, UniProt P00533, C797S/DEL746-750); assay: Biochemical EGFR kinase assay (Lance Ultra TR-FRET), double mutant del19/C797S
Chain of EGFR del19/C797S (P00533 with tags, fused parts or gaps DEL746-750/C797S): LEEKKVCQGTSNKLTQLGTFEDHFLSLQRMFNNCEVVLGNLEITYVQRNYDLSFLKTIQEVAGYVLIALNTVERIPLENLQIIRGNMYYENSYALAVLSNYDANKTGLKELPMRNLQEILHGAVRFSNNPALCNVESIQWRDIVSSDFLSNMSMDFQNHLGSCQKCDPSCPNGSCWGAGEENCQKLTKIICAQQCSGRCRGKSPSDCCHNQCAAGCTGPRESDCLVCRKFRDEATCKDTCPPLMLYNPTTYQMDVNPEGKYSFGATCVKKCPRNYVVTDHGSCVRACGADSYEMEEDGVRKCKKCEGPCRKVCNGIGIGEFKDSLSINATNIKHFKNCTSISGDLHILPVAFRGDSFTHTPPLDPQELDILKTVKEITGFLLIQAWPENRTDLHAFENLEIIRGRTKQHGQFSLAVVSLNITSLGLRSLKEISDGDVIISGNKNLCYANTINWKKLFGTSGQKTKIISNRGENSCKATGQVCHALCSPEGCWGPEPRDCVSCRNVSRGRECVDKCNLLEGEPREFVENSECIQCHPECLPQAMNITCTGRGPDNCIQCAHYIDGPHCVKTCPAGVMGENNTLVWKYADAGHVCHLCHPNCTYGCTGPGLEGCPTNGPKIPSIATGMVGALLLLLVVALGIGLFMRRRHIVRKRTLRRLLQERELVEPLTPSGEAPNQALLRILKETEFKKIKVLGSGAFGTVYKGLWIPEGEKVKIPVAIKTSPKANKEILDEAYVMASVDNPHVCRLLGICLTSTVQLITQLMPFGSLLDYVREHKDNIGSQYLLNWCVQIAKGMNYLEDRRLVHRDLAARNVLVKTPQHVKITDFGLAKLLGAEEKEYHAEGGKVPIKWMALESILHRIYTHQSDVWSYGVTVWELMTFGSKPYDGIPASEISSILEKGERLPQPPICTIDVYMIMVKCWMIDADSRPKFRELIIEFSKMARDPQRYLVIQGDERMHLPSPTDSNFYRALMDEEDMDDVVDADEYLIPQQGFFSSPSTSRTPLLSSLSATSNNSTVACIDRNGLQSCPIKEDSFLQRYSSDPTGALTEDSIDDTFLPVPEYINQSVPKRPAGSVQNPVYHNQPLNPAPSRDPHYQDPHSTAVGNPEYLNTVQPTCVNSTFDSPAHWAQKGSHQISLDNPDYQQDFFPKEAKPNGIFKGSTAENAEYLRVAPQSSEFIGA
In short: as §1

EGFR L858R/C797S = EGFR L858R/C797S (Homo sapiens, UniProt P00533, C797S/L858R); assay: Biochemical EGFR kinase assay (Lance Ultra TR-FRET), double mutant L858R/C797S
Chain of EGFR L858R/C797S (P00533 25-1210 C797S/L858R): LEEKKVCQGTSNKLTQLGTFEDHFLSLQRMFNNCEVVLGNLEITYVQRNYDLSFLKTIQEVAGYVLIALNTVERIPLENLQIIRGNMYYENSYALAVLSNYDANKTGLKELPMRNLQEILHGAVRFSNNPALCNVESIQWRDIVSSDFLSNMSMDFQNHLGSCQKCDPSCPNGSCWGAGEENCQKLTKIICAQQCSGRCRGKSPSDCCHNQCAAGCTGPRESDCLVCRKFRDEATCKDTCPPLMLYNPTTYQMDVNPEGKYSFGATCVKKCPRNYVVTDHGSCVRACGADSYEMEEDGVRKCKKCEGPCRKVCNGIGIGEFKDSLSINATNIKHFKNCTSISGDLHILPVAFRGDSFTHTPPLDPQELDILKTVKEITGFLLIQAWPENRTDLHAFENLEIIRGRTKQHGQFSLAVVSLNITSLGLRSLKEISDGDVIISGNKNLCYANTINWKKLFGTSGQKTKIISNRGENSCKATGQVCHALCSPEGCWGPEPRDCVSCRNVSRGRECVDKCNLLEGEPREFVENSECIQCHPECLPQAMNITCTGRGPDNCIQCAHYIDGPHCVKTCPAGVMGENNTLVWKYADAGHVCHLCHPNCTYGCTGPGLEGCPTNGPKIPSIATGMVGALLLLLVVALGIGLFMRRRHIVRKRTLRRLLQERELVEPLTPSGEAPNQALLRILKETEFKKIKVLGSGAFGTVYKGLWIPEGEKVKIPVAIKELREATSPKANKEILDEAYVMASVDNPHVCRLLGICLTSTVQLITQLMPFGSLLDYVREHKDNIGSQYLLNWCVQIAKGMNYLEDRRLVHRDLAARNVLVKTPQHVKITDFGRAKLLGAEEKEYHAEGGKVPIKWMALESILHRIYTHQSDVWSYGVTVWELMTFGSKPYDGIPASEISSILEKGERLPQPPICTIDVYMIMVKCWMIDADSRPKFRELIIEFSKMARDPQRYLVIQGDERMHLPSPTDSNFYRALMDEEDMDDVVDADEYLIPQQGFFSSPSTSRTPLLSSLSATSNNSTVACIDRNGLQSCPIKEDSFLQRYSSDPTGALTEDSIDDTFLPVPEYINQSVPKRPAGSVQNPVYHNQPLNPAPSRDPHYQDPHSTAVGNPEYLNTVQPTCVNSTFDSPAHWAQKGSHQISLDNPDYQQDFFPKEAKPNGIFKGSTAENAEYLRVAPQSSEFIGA
In short: as §1

EGFR wildtype (WT) = EGFR wildtype (WT) (Homo sapiens, UniProt P00533); assay: Biochemical EGFR kinase assay (Lance Ultra TR-FRET), wildtype
Chain of EGFR wildtype (WT) (P00533 25-1210): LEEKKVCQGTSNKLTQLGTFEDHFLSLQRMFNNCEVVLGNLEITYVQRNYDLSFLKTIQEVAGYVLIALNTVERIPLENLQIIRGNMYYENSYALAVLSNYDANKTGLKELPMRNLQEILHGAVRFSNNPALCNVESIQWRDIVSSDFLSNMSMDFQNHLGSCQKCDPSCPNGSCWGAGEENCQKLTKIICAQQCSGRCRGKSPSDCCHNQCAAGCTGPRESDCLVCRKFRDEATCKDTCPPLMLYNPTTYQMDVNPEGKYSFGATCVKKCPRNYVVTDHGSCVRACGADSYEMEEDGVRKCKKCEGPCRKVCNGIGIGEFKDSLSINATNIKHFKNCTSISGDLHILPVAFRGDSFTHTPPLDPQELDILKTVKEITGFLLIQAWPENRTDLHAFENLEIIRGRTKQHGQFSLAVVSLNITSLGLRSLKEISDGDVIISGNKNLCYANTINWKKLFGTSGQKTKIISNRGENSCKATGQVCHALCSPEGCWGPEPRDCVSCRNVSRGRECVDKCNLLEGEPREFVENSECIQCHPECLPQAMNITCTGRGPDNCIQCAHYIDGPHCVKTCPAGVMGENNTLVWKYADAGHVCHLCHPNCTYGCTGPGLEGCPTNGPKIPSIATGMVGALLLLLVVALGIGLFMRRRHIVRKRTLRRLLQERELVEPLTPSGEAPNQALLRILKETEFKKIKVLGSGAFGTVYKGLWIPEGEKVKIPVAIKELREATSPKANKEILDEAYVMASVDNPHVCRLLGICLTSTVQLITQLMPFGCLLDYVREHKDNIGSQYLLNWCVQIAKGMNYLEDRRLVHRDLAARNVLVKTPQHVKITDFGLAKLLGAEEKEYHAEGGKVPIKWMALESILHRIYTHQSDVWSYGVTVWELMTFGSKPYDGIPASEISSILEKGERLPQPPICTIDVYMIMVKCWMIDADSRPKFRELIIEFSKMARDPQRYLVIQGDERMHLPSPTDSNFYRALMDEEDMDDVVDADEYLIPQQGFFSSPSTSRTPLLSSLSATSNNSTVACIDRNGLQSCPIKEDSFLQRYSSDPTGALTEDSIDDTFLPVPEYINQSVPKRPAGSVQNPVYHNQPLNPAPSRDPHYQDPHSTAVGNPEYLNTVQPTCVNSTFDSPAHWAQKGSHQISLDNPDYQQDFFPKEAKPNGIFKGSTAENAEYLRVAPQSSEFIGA
In short: as §1

[1] = IC50 del19/T790M/C797S (nM) 100 μM ATP, 100 μM ATP
[2] = IC50 L858R/T790M/C797S (nM) 100 μM ATP, 100 μM ATP
[3] = IC50 del19/C797S (nM) 100 μM ATP, 100 μM ATP
[4] = IC50 L858R/C797S (nM) 100 μM ATP, 100 μM ATP
[5] = IC50 WT (nM) 100 μM ATP, 100 μM ATP
[6] = read-out: IC50 del19/T790M/C797S (nM) 100 μM ATP, 100 μM ATP
[7] = read-out: IC50 L858R/T790M/C797S (nM) 100 μM ATP, 100 μM ATP
[8] = read-out: IC50 del19/C797S (nM) 100 μM ATP, 100 μM ATP
[9] = read-out: IC50 L858R/C797S (nM) 100 μM ATP, 100 μM ATP
[10] = read-out: IC50 WT (nM) 100 μM ATP, 100 μM ATP
[11] = Km ATP, read-out: IC50 del19/T790M/C797S (nM) Km ATP
[12] = Km ATP, read-out: IC50 L858R/T790M/C797S (nM) Km ATP
[13] = Km ATP, read-out: IC50 del19/C797S (nM) Km ATP
[14] = Km ATP, read-out: IC50 L858R/C797S (nM) Km ATP
[15] = Km ATP, read-out: IC50 WT (nM) Km ATP

Chain of EGFR del19/T790M/C797S (P00533 with tags, fused parts or gaps DEL746-750/T790M/C797S): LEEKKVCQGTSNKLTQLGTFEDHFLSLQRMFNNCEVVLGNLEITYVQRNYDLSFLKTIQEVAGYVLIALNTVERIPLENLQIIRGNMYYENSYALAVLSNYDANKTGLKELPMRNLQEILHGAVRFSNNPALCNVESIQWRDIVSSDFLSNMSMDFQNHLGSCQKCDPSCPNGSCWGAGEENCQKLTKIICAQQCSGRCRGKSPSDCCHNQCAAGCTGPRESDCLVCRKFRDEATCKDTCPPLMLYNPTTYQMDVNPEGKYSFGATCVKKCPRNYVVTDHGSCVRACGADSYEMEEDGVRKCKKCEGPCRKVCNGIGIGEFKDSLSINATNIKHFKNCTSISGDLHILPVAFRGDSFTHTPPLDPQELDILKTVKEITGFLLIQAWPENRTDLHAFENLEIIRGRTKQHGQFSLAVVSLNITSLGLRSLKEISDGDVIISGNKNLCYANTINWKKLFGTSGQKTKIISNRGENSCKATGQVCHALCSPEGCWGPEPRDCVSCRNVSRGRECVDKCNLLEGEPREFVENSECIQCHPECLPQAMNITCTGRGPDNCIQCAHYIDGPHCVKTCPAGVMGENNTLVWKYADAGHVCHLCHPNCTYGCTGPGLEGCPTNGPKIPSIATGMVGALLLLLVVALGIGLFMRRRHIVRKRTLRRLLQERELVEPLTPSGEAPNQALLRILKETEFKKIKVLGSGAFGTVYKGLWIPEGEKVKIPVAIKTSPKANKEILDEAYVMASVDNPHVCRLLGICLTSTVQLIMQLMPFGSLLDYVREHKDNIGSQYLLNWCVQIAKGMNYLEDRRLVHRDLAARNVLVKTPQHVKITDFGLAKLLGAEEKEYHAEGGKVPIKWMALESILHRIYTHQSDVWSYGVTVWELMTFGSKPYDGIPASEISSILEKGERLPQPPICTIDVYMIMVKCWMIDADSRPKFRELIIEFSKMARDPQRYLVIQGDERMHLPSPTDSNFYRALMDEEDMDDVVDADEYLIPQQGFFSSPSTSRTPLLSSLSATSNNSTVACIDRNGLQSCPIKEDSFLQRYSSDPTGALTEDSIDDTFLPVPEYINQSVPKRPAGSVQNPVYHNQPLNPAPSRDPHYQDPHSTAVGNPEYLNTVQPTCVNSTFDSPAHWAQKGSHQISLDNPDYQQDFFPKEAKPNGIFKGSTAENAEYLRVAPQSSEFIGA

Row | SMILES | IC50 (EGFR del19/T790M/C797S; [1]) [nM] | IC50 (EGFR L858R/T790M/C797S; [2]) [nM] | IC50 (EGFR del19/C797S; [3]) [nM] | IC50 (EGFR L858R/C797S; [4]) [nM] | IC50 (EGFR wildtype (WT); [5]) [nM] | IC50 (EGFR del19/T790M/C797S; [6]) [nM] | IC50 (EGFR L858R/T790M/C797S; [7]) [nM] | IC50 (EGFR del19/C797S; [8]) [nM] | IC50 (EGFR L858R/C797S; [9]) [nM] | IC50 (EGFR wildtype (WT); [10]) [nM] | IC50 (EGFR del19/T790M/C797S; [11]) [nM] | IC50 (EGFR L858R/T790M/C797S; [12]) [nM] | IC50 (EGFR del19/C797S; [13]) [nM] | IC50 (EGFR L858R/C797S; [14]) [nM] | IC50 (EGFR wildtype (WT); [15]) [nM]
1 | CN(CC(F)F)C[C@H]1CC[C@@H](Nc2cc(Nc3ccnc(-c4cnn(S(=O)(=O)C5CC5)c4)n3)ncc2-c2ccn(CC(F)F)n2)CC1 [Example 245, N^2-(2-(1-(Cyclopropylsulfonyl)-1H-pyrazol-4-yl)pyrimidin-4-yl)-N^4-((1s,4s)-4-(((2,2-difluoroethyl)(methyl)amino)methyl)cyclohexyl)-5-(1-(2,2-difluoroethyl)-1H-pyrazol-3-yl)pyridine-2,4-diamine] | 13.1 | 12.8 | 27.8 | 259 | > 10000 |  |  |  |  |  |  |  |  |  | 
2 | CC(C)(O)[C@H]1CC[C@@H](Nc2cc(Nc3ccnc(-c4cnn(S(=O)(=O)C5CC5)c4)n3)ncc2-c2csc(C(F)(F)F)n2)CC1 [Example 49, 2-((1s,4s)-4-((2-((2-(1-(Cyclopropylsulfonyl)-1H-pyrazol-4-yl)pyrimidin-4-yl)amino)-5-(2-(trifluoromethyl)thiazol-4-yl)pyridin-4-yl)amino)cyclohexyl)propan-2-ol] |  |  |  |  |  | 18.8 | 28.7 | 200 | 278 | > 10000 |  |  |  |  | 
3 | CC(C)(O)[C@H]1CC[C@@H](Nc2cc(Nc3ccnc(-c4cnn(S(=O)(=O)C5CC5)c4)n3)ncc2-c2ccn(CCC(F)(F)F)n2)CC1 [Example 300, 2-((1s,4s)-4-((2-((2-(1-(Cyclopropylsulfonyl)-1H-pyrazol-4-yl)pyrimidin-4-yl)amino)-5-(1-(3,3,3-trifluoropropyl)-1H-pyrazol-3-yl)pyridin-4-yl)amino)cyclohexyl)propan-2-ol] |  |  |  |  |  |  |  |  |  |  | 1.3 | 0.8 | 32.6 | 0.5 | 44.8
4 | CC(Nc1cc(Nc2ccnc(-c3cnn(S(=O)(=O)C4CC4)c3)n2)ncc1-c1ccn(C(F)F)n1)C(F)F (centres unmarked) [Example 213, N^2-(2-(1-(Cyclopropylsulfonyl)-1H-pyrazol-4-yl)pyrimidin-4-yl)-5-(1-(difluoromethyl)-1H-pyrazol-3-yl)-N^4-(1,1-difluoropropan-2-yl)pyridine-2,4-diamine] |  |  |  |  |  |  |  |  |  |  | 3.4 | 2.7 | 370 | 123 | 488
5 | CN(C)S(=O)(=O)n1ccc(-c2nccc(Nc3cc(N[C@H]4CC[C@@](C)(O)CC4)c(-c4ccn(C(F)F)n4)cn3)n2)c1 [Example 109, 3-(4-((5-(1-(Difluoromethyl)-1H-pyrazol-3-yl)-4-(((1s,4s)-4-hydroxy-4-methylcyclohexyl)amino)pyridin-2-yl)amino)pyrimidin-2-yl)-N,N-dimethyl-1H-pyrrole-1-sulfonamide] |  |  |  |  |  |  |  |  |  |  | 9.5 | 2.2 | 178 | 14.5 | 538
6 | CN(C)C[C@H]1CC[C@@H](Nc2cc(Nc3ccnc(-c4cnn(S(=O)(=O)C5CC5)c4)n3)ncc2-c2ccn(C(F)F)n2)CC1 [Example 195, N^2-(2-(1-(Cyclopropylsulfonyl)-1H-pyrazol-4-yl)pyrimidin-4-yl)-5-(1-(difluoromethyl)-1H-pyrazol-3-yl)-N^4-((1s,4s)-4-((dimethylamino)methyl)cyclohexyl)pyridine-2,4-diamine] | 0.1 | 0.1 | 0.3 | 0.8 | 145 |  |  |  |  |  | 0.1 | 0.04 | 0.2 | 0.1 | 0.3
7 | CN(CC(F)F)C[C@H]1CC[C@@H](Nc2cc(Nc3ccnc(-c4cnn(S(=O)(=O)C5CC5)c4)n3)ncc2-c2cc(C(F)(F)F)n(C)n2)CC1 [Example 259, N^2-(2-(1-(Cyclopropylsulfonyl)-1H-pyrazol-4-yl)pyrimidin-4-yl)-N^4-((1s,4s)-4-(((2,2-difluoroethyl)(methyl)amino)methyl)cyclohexyl)-5-(1-methyl-5-(trifluoromethyl)-1H-pyrazol-3-yl)pyridine-2,4-diamine] | 172 | 63.9 | 151 | 819 | > 10000 |  |  |  |  |  |  |  |  |  | 
8 | CN[C@H]1CC[C@@H](Nc2cc(Nc3ccnc(-c4cnn(S(=O)(=O)C5CC5)c4)n3)ncc2-c2ccn(C(C)C)n2)CC1 [Example 86, N^2-(2-(1-(Cyclopropylsulfonyl)-1H-pyrazol-4-yl)pyrimidin-4-yl)-5-(1-isopropyl-1H-pyrazol-3-yl)-N^4-((1s,4s)-4-(methylamino)cyclohexyl)pyridine-2,4-diamine] |  |  |  |  |  | 0.2 | 0.3 | 3.2 | 14.8 | 8510 |  |  |  |  | 
9 | FC(F)Cn1cc(-c2nccc(Nc3cc(N[C@H]4CC[C@@H](F)CC4)c(-c4ccn(C(F)F)n4)cn3)n2)cn1 [Example 161, N^2-(2-(1-(2,2-Difluoroethyl)-1H-pyrazol-4-yl)pyrimidin-4-yl)-5-(1-(difluoromethyl)-1H-pyrazol-3-yl)-N^4-((1s,4s)-4-fluorocyclohexyl)pyridine-2,4-diamine] |  |  |  |  |  |  |  |  |  |  | 3.2 | 2.4 | 276 | 60.6 | 640
10 | Cn1ccc(-c2cnc(Nc3ccnc(-c4cnn(S(=O)(=O)C5CC5)c4)n3)cc2N[C@H]2CC[C@H](CCO)CC2)n1 [Example 134, 2-((1r,4r)-4-((2-((2-(1-(Cyclopropylsulfonyl)-1H-pyrazol-4-yl)pyrimidin-4-yl)amino)-5-(1-methyl-1H-pyrazol-3-yl)pyridin-4-yl)amino)cyclohexyl)ethan-1-ol] | 0.5 | 0.5 | 0.8 | 9.2 | > 10000 |  |  |  |  |  | 0.2 | 0.1 | 0.6 | 0.4 | 4.4
11 | O=S(=O)(C1CC1)n1cc(-c2nccc(Nc3cc(N[C@H]4CCC[C@H](CO)C4)c(-c4ccn(CC(F)(F)F)n4)cn3)n2)cn1 [Example 271, ((1S,3S)-3-((2-((2-(1-(Cyclopropylsulfonyl)-1H-pyrazol-4-yl)pyrimidin-4-yl)amino)-5-(1-(2,2,2-trifluoroethyl)-1H-pyrazol-3-yl)pyridin-4-yl)amino)cyclohexyl)methanol] | 1.4 | 1.4 | 122 | 8.7 | > 10000 |  |  |  |  |  | 0.6 | 0.5 | 10.3 | 4.6 | 50.1
12 | O=S(=O)(C1CC1)n1cc(-c2nccc(Nc3cc(NC[C@H]4CC[C@@H](O)CC4)c(-c4ccn(C(F)F)n4)cn3)n2)cn1 [Example 30, (1s,4s)-4-(((2-((2-(1-(Cyclopropylsulfonyl)-1H-pyrazol-4-yl)pyrimidin-4-yl)amino)-5-(1-(difluoromethyl)-1H-pyrazol-3-yl)pyridin-4-yl)amino)methyl)cyclohexan-1-ol] | 2.4 | 2.8 | 2.2 | 41.3 | > 10000 |  |  |  |  |  | 0.6 | 0.3 | 0.5 |  | 15.4
13 | Cn1cc(-c2nccc(Nc3cc(N[C@H]4CC[C@@](C)(O)CC4)c(-c4ccn(C(F)F)n4)cn3)n2)cn1 [Example 139, (1s,4s)-4-((5-(1-(Difluoromethyl)-1H-pyrazol-3-yl)-2-((2-(1-methyl-1H-pyrazol-4-yl)pyrimidin-4-yl)amino)pyridin-4-yl)amino)-1-methylcyclohexan-1-ol] | 1.1 | 5.2 | 99.1 | 165 | > 10000 |  |  |  |  |  | 1.7 | 0.8 | 50.2 | 57.1 | 61
